Source: patent publication US20250163038A1, “CBL-B MODULATORS AND USES THEREOF” (Nimbus Clio, Inc., priority 2021, published 2025)

Target: Recombinant human Cbl-b (aa 36-427) (Homo sapiens, UniProt Q13191)
Assay: Cbl-b Biochemical Assay (TR-FRET)
Conditions: read-out: TR-FRET hCbl-b IC50

Recombinant human Cbl-b (aa 36-427), sequence (Q13191 36-427): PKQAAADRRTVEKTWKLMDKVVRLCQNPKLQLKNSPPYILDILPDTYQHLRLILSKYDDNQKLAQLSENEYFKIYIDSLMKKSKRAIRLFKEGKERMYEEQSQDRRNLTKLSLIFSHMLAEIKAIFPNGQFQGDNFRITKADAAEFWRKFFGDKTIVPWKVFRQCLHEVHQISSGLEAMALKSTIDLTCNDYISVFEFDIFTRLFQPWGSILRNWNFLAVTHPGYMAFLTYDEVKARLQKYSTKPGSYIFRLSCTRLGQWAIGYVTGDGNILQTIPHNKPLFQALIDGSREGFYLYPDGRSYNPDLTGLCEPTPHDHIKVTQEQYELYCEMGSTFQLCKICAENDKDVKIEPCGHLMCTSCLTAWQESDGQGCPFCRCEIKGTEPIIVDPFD

| IC50 [µM] | Structure (SMILES) |
| --- | --- |
| 10 to 50 | Cn1cnnc1CC1(c2cccc(-c3nc4cc(Br)cc(C(F)(F)F)c4[nH]3)c2)COC1 [ABE-2, 5-Bromo-2-(3-(3-((4-methyl-4H-1,2,4-triazol-3-yl)methyl)oxetan-3-yl)phenyl)-7-(trifluoromethyl)-1H-benzo[d]imidazole] |
| 10 to 50 | Cn1cnnc1CC1(c2cccc(-c3nc4c(C(F)(F)F)cccc4s3)c2)COC1 [ABF-4, 2-(3-[3-[(4-Methyl-1,2,4-triazol-3-yl)methyl]oxetan-3-yl]phenyl)-4-(trifluoromethyl)-1,3-benzothiazole] |
| 10 to 50 | Cn1cnnc1CC1(c2cccc(-c3nc4cccc(C5CC5)c4[nH]3)c2)COC1 [ABG-3, 7-Cyclopropyl-2-(3-(3-((4-methyl-4H-1,2,4-triazol-3-yl)methyl)oxetan-3-yl)phenyl)-1H-benzo[d]imidazole] |
| 10 to 50 | Cn1cnnc1CCc1cccc(-c2nc3cccc(C(F)(F)F)n3n2)c1 [ABI-7, 2-(3-(2-(4-Methyl-4H-1,2,4-triazol-3-yl)ethyl)phenyl)-5-(trifluoromethyl)-[1,2,4]triazolo[1,5-a]pyridine] |
| 10 to 50 | Cn1cnnc1CC1(c2cccc(-c3nc4cccc(Cl)c4[nH]3)c2)COC1 [ABM-2, 7-Chloro-2-(3-(3-((4-methyl-4H-1,2,4-triazol-3-yl)methyl)oxetan-3-yl)phenyl)-1H-benzo[d]imidazole] |
| 10 to 50 | Cn1cnnc1-c1cnn(C)c1-c1cccc(-c2nc3cccc(C(F)(F)F)n3n2)c1 [ABN-2, 4-Methyl-3-(1-methyl-5-{3-[5-(trifluoromethyl)-[1,2,4]triazolo[1,5-a]pyridin-2-yl]phenyl}pyrazol-4-yl)-1,2,4-triazole] |
| 10 to 50 | Cn1cnnc1CC1(c2cccc(-c3nc4cccc(Br)c4[nH]3)c2)COC1 [ABP-2, 4-Bromo-2-(3-[3-[(4-methyl-1,2,4-triazol-3-yl)methyl]oxetan-3-yl]phenyl)-1H-1,3-benzodiazole] |
| 10 to 50 | Cn1cnnc1CC1(c2cccc(-c3nc4cccc(OC(F)(F)F)c4[nH]3)c2)COC1 [ABQ-2, 2-(3-(3-((4-Methyl-4H-1,2,4-triazol-3-yl)methyl)oxetan-3-yl)phenyl)-7-(trifluoromethoxy)-1H-benzo[d]imidazole] |
| 10 to 50 | Cn1cnnc1-c1ccccc1-c1cccc(-c2nc3cccc(C(F)(F)F)c3[nH]2)c1 [ABW-1, 2-(2′-(4-Methyl-4H-1,2,4-triazol-3-yl)-[1,1′-biphenyl]-3-yl)-7-(trifluoromethyl)-1H-benzo[d]imidazole] |
| 10 to 50 | Cn1cnnc1CC1(c2cccc(-c3nc4cc(C(=O)Nc5nccn5C)cc(C(F)(F)F)c4[nH]3)c2)COC1 [ABZ-2, N-(1-Methyl-1H-imidazol-2-yl)-2-(3-(3-((4-methyl-4H-1,2,4-triazol-3-yl)methyl)oxetan-3-yl)phenyl)-7-(trifluoromethyl)-1H-benzo[d]imidazole-5-carboxamide] |
| 10 to 50 | Cn1cnnc1-c1ccccc1-c1cccc(-c2nc3cc(C(=O)N4CCC5(CC5)C4)cc(C(F)(F)F)c3[nH]2)c1 [ACE-1, (2-(2′-(4-Methyl-4H-1,2,4-triazol-3-yl)-[1,1′-biphenyl]-3-yl)-7-(trifluoromethyl)-1H-benzo[d]imidazol-5-yl)(5-azaspiro[2.4]heptan-5-yl)methanone] |
| 10 to 50 | Cn1cnnc1CC1(c2cccc(-c3cc(C(F)(F)F)cn(CCN4CC(O)C4)c3=O)c2)COC1 [ACH-5, 1-(2-(3-Hydroxyazetidin-1-yl)ethyl)-3-(3-(3-((4-methyl-4H-1,2,4-triazol-3-yl)methyl)oxetan-3-yl)phenyl)-5-(trifluoromethyl) pyridin-2(1H)-one] |
| 10 to 50 | Cn1cnnc1CC1(c2cccc(-c3cc4cccc(C(F)(F)F)c4[nH]3)c2)COC1 [ACP-4, 2-(3-(3-((4-Methyl-4H-1,2,4-triazol-3-yl)methyl)oxetan-3-yl)phenyl)-7-(trifluoromethyl)-1H-indole] |
| 10 to 50 | CCNc1cc(-c2c(-c3nncn3C)cnn2C)cc(-c2nc3ccc(Br)c(C(F)(F)F)c3[nH]2)n1 [ACT-3, 6-(6-Bromo-7-(trifluoromethyl)-1H-benzo[d]imidazol-2-yl)-N-ethyl-4-(1-methyl-4-(4-methyl-4H-1,2,4-triazol-3-yl)-1H-pyrazol-5-yl) pyridin-2-amine] |
| 10 to 50 | CCNc1cc(-c2c(-c3nncn3C)cnn2C)cc(-c2nc3ccc(C)c(C(F)(F)F)c3[nH]2)n1 [ACV-5, N-Ethyl-4-(1-methyl-4-(4-methyl-4H-1,2,4-triazol-3-yl)-1H-pyrazol-5-yl)-6-(6-methyl-7-(trifluoromethyl)-1H-benzo[d]imidazol-2-yl) pyridin-2-amine] |
| 10 to 50 | CCNc1cc(-c2c(-c3nncn3C)cnn2C)cc(-c2nc3cccc(C(F)(F)F)c3o2)n1 [ACW-2, N-Ethyl-4-(1-methyl-4-(4-methyl-4H-1,2,4-triazol-3-yl)-1H-pyrazol-5-yl)-6-(7-(trifluoromethyl)benzo[d]oxazol-2-yl)pyridin-2-amine] |
| 10 to 50 | CCNc1cc(-c2ccccc2-c2nncn2C)cc(-c2nc3cccc(C(F)(F)F)c3o2)n1 [AS-12, N-ethyl-4-(2-(4-methyl-4H-1,2,4-triazol-3-yl)phenyl)-6-(7-(trifluoromethyl)benzo[d]oxazol-2-yl)pyridin-2-amine] |
| 10 to 50 | Cn1cnnc1-c1ccccc1-c1cccc(-c2nc3ccc(Br)c(C(F)(F)F)c3[nH]2)c1 [BB-1, 6-Bromo-2-(2′-(4-methyl-4H-1,2,4-triazol-3-yl)-[1,1′-biphenyl]-3-yl)-7-(trifluoromethyl)-1H-benzo[d]imidazole] |
| 10 to 50 | Cn1cnnc1-c1ccccc1-c1cccc(-c2nc3ccc(F)c(C(F)(F)F)c3[nH]2)c1 [BC-1, 6-Fluoro-2-(2′-(4-methyl-4H-1,2,4-triazol-3-yl)-[1,1′-biphenyl]-3-yl)-7-(trifluoromethyl)-1H-benzo[d]imidazole] |
| 10 to 50 | CN1CCC(C(=O)Nc2ccc3nc(-c4cccc(-c5ccccc5-c5nncn5C)c4)[nH]c3c2C(F)(F)F)CC1 [BF-3, 1-Methyl-N-(2-(2′-(4-methyl-4H-1,2,4-triazol-3-yl)-[1,1′-biphenyl]-3-yl)-7-(trifluoromethyl)-1H-benzo[d]imidazol-6-yl)piperidine-4-carboxamide, Formic Acid] |
| 10 to 50 | Cn1cnnc1-c1cc(F)ccc1-c1cccc(-c2nc3ccccc3[nH]2)c1 [CA-2, 2-(4′-Fluoro-2′-(4-methyl-4H-1,2,4-triazol-3-yl)-[1,1′-biphenyl]-3-yl)-1H-benzo[d]imidazole] |
| 10 to 50 | Cn1cnnc1-c1ccccc1-c1cccc(-c2cc(C(F)(F)F)cn(C)c2=O)c1 [CG-4, 1-Methyl-3-(2′-(4-methyl-4H-1,2,4-triazol-3-yl)-[1,1′-biphenyl]-3-yl)-5-(trifluoromethyl)pyridin-2(1H)-one] |
| 10 to 50 | Cn1cnnc1-c1ccccc1-c1cccc(-c2cc(C(F)(F)F)c(C(=O)O)[nH]c2=O)c1 [CH-3, 5-(2′-(4-methyl-4H-1,2,4-triazol-3-yl)-[1,1′-biphenyl]-3-yl)-6-oxo-3-(trifluoromethyl)-1,6-dihydropyridine-2-carboxylic Acid] |
